Experimental data as given in PubChem BioAssay AID330 (DTP/NCI, 2004).
Toxic doses and inconclusive results are not listed. Rule for the calls: active = survival T/C of 150% or more; inactive = T/C below 125% in these data.

Test system: P388 leukemia ip, CD2F1 mice, survival T/C
Assay: NCI In Vivo Anticancer Drug Screen. Data for tumor model P388 Leukemia (intraperitoneal) in CD2F1 (CDF1) mice
Settings: endpoint: median survival time, higher = longer survival
Method in brief: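 Mice carrying the transplanted tumor received test compound or vehicle. Survival was recorded in each group, and the value is the treated-group measurement divided by that of the vehicle-treated control group.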

[1] = dose: 50.0 mg/kg/injection, schedule: Q01DX005 (ip), vehicle: Klucel (hydroxypropylcellulose) (HPC)
[2] = dose: 100.0 mg/kg/injection, schedule: Q01DX005 (ip), vehicle: Klucel (hydroxypropylcellulose) (HPC)
[3] = dose: 200.0 mg/kg/injection, schedule: Q01DX005 (ip), vehicle: Klucel (hydroxypropylcellulose) (HPC)
[4] = dose: 50.0 mg/kg/injection, schedule: Q01DX009 (ip), vehicle: saline
[5] = dose: 100.0 mg/kg/injection, schedule: Q01DX009 (ip), vehicle: saline
[6] = dose: 200.0 mg/kg/injection, schedule: Q01DX009 (ip), vehicle: saline
[7] = dose: 50.0 mg/kg/injection, schedule: Q01DX009 (ip), vehicle: Klucel (hydroxypropylcellulose) (HPC)
[8] = dose: 100.0 mg/kg/injection, schedule: Q01DX009 (ip), vehicle: Klucel (hydroxypropylcellulose) (HPC)
[9] = dose: 200.0 mg/kg/injection, schedule: Q01DX009 (ip), vehicle: Klucel (hydroxypropylcellulose) (HPC)

Measured: T/C

O=NNc1ccc(S(=O)(=O)c2ccc3ccccc3c2)cn1
inactive: dose: 3.12 mg/kg/injection, schedule: Q01DX009 (ip), vehicle: water 120 % of control | dose: 6.25 mg/kg/injection, schedule: Q01DX009 (ip), vehicle: water 115 % of control | dose: 12.5 mg/kg/injection, schedule: Q01DX009 (ip), vehicle: water 116 % of control | dose: 25.0 mg/kg/injection, schedule: Q01DX009 (ip), vehicle: water 109 % of control

CC1=NN(C(=O)c2ccncc2)C(=O)C1N=Nc1ccc(Cl)cc1 (centres undefined)
inactive: dose: 50.0 mg/kg/injection, schedule: Q01DX009 (ip), vehicle: saline with Tween-80 104 % of control | dose: 100.0 mg/kg/injection, schedule: Q01DX009 (ip), vehicle: saline with Tween-80 99 % of control | dose: 200.0 mg/kg/injection, schedule: Q01DX009 (ip), vehicle: saline with Tween-80 105 % of control

C=C1C(=O)OC2CC3=CCC(OC3=O)/C(C)=C\CC12 (centres undefined)
inactive: dose: 21.5 mg/kg/injection, schedule: Q01DX005 (ip), vehicle: Klucel (hydroxypropylcellulose) (HPC) 118 % of control | dose: 43.0 mg/kg/injection, schedule: Q01DX005 (ip), vehicle: Klucel (hydroxypropylcellulose) (HPC) 116 % of control | dose: 86.0 mg/kg/injection, schedule: Q01DX005 (ip), vehicle: Klucel (hydroxypropylcellulose) (HPC) 108 % of control

Cc1c(N=Nc2ccc(Br)cc2)c(-c2ccccc2)nn1C(=S)S
inactive: [1] 105 % of control | [2] 105 % of control | [3] 90 % of control

O=C1CCSC(=S)N1c1ccc(N=Nc2ccccc2)cc1
inactive: [4] 105 % of control | [5] 110 % of control | [6] 110 % of control

C=C1C(=O)N2CCc3c([nH]c4ccccc34)[C@H]2C[C@@H]1CO
inactive: [1] 95 % of control | [2] 88 % of control | [3] 96 % of control

C/C(=N\NC(=S)N1CCN(c2ncccn2)CC1)c1ccccn1
inactive: dose: 6.25 mg/kg/injection, schedule: Q01DX005 (ip), vehicle: saline with Tween-80 119 % of control | dose: 12.5 mg/kg/injection, schedule: Q01DX005 (ip), vehicle: saline with Tween-80 119 % of control

CC(=O)n1nc(Cl)c2cccnc2c1=O
inactive: dose: 50.0 mg/kg/injection, schedule: Q01DX005 (ip), vehicle: saline with Tween-80 98 % of control | dose: 100.0 mg/kg/injection, schedule: Q01DX005 (ip), vehicle: saline with Tween-80 99 % of control | dose: 200.0 mg/kg/injection, schedule: Q01DX005 (ip), vehicle: saline with Tween-80 107 % of control

O=[N+]([O-])c1ccc(-c2csc(NCC3CCCO3)n2)cc1 (centres undefined)
inactive: [7] 101 % of control | [8] 100 % of control | [9] 100 % of control

CC1C(=O)C(C)C(c2ccccc2Cl)OC1c1ccccc1Cl (centres undefined)
inactive: [4] 112 % of control | [5] 102 % of control | [6] 96 % of control

CN(C)c1ccc(Cc2ccc(N(C)C)c(C(O)(c3ccccc3)c3ccccc3)c2)cc1C(O)(c1ccccc1)c1ccccc1
inactive: dose: 1.56 mg/kg/injection, schedule: Q01DX005 (ip), vehicle: saline 100 % of control | dose: 3.13 mg/kg/injection, schedule: Q01DX005 (ip), vehicle: saline 97 % of control | dose: 6.25 mg/kg/injection, schedule: Q01DX005 (ip), vehicle: saline 90 % of control

CC(C)C1(c2ccsc2)NC(=O)NC1=O (centres undefined)
inactive: [7] 107 % of control | [8] 99 % of control | [9] 96 % of control

COC1=C[C@@H](C)[C@@H]2C[C@H]3O[C@@H](OC4OC(CO)C(O)C(O)C4O)C[C@H]4C(C)=C(OC)C(=O)[C@H]([C@@]2(C)C1=O)[C@@]34C (some centres undefined)
inactive: dose: 4.0 mg/kg/injection, schedule: Q01DX005 (ip), vehicle: Klucel (hydroxypropylcellulose) (HPC) 96 % of control | dose: 8.0 mg/kg/injection, schedule: Q01DX005 (ip), vehicle: Klucel (hydroxypropylcellulose) (HPC) 94 % of control | dose: 16.0 mg/kg/injection, schedule: Q01DX005 (ip), vehicle: Klucel (hydroxypropylcellulose) (HPC) 103 % of control
